# In patent US5593678A, “Protection of teleost fish” (University of Georgia Research Foundation, priority 1994, dated 1997):
# Read-outs that look alike come from different tables or passages of the source.
# Experiments:
# IM-9 target cells = system: IM-9 target cells
# Description: In further studies, NCC were treated with different concentrations of protein phosphatase inhibitors for two hours and labeled IM-9 target cells were added for a four-hour microcytotoxicity assay (Table 8). […] To determine if the activating effects of the protein phosphatase inhibitors were reversible, NCC were treated for 90 minutes with NaF and vanadate and then the inhibitors were removed prior to addition of the labeled target cells.
# [1] = system: phosphotidylinositol phosphate phosphatase; conditions: cited from earlier work
# [2] = system: NCC from stressed fish (lysis of IM-9 target cells); conditions: for Percent Specific Release (stressed fish): 100:1, control 0.9
# Description: (§1) A ^51 Cr release assay was used to determine cytotoxicity. Target cells at 1-2×10^6 cells/ml were labeled with 100 μCi of sodium chromate (Amersham, Arlington Heights, Ill.). NCC effector cells were treated as previously described [Evans et al. (1988) supra], centrifuged (500 g), and resuspended in media and added at different E:T ratios to the labeled target cells in round-bottomed 96-well microtiter plates. This mixture was incubated (25° C.) for 4-6 hours and 100 μl of each supernatant was removed to determine radioactivity (Beckman Biogamma II Counter; Beckman Instruments, Irvine, Calif.). The results are expressed as either percentage specific release (SR)=[(test release--spontaneous release)/(total release--spontaneous release)]×100; percent inhibition=[(percentage control SR--percentage test SR)/percentage control SR]×100; and percentage increase=(percentage test SR--percentage control SR)/percentage control SR.
# A common observation in fish exposed to stress, e.g., toxicants, drastic temperature changes, handling, etc., is the temporary loss of NCC activity.
# [3] = system: NCC (lysis of IM-9 target cells); conditions: for Percentage of control (NCC cytotoxic activity): 120 minutes; for effect of removal of inhibitor on NCC activation (words): 90 minutes treatment, washed, E:T 40:1
# Description: FIG. 4. Individual and combined effects of phosphatase inhibitors on NCC cytotoxicity, NCC (7×10^5 cells) were incubated with either media (.diamond.), vanadate (Δ) (5 mM). NaF (.smallcircle.) (20 mM), or both vanadate and NaF (.quadrature.) for the indicated time periods before addition to labeled IM-9 target cells.
# FIG. 5. Effects of removal of Na3 VO4 on NCC activation. NCC were harvested, incubated for three hours, washed, counted and added to duplicate tubes containing either media alone or media containing 2.5, 5 and 10 mM vanadate. Following a 90 minutes incubation time, the cells were either washed and resuspended in media (closed circles) or added directly (open circles) to wells containing ^51 chromium labeled IM-9 target cells (E:T ratio 40:1).
# FIG. 6. Effects of removal of NaF on NCC activation. NCC were harvested, incubated for three hours in media, washed, counted and added to duplicate tubes containing media alone or in the presence of 5, 10 and 20 mM NaF. Following a 90 minutes treatment time, NCC were either washed (closed circles) or added directly (open circles) to wells containing labeled IM-9 target cells (E:t ratio 40:1).
# FIG. 7. Effects of Na3 VO4 on NCC with different levels of cytotoxicity. NCC were harvested from anterior kidneys of fish from three different sources. The cells were incubated in media for three hours, washed, counted and added to test tubes containing either media alone or media with 2.5, 5 and 10 mM vanadate. Following a two hours incubation time, the effectors were added to wells containing labeled IM-9 cells at a 40:1 E:T ratio.
# FIG. 8. Effects of NaF on NCC with different levels of cytotoxicity. NCC were harvested from anterior kidneys of fish from three different sources. The cells were incubated in media for three hours, washed, counted and added to media or media with 5, 10 and 20 mM NaF. Following a two-hour incubation, NCC were added to wells containing ^51 chromium labeled IM-9 target cells for a final E:T ratio of 40:1.
# as §1
# NCC were obtained as previously described [Graves et al. (1984) supra]; Evans et al. (1984) supra]. […] NCC were then washed and resuspended at 20×10^6 cells/ml, and 35 μl aliquots were added to test tubes containing 315 μl media only (media control) or media containing the indicated treatments. After 2 hr incubation, the cells were mixed with ^51 Cr-labeled IM-9 target cells and incubated for 4-6 hours ([…]). Supernatants were harvested and cytotoxicity levels were calculated as previously described.
# Membrane phosphorylation is maintained through a delicate equilibrium between cellular kinase and phosphatase activities.
# In further studies, NCC were treated with different concentrations of protein phosphatase inhibitors for two hours and labeled IM-9 target cells were added for a four-hour microcytotoxicity assay (Table 8).
# calcineurin = conditions: cited from earlier work
# protein phosphatase = conditions: cited from earlier work
# NCC = conditions: relatively high concentrations
# CRC cells = experiment: Lytic activity of CRC cells (rat leukemic NK cells); type: cell-based, rat (F344)
# Excerpt: The present invention relates to the relevance of protein phosphatase inhibitors to the protection of other species and other types of natural killer cells. For example, the CRC cells (tissue cultured cells obtained from peripheral blood of leukemic F344 rats) are perhaps more interesting (e.g., another model to study the effects of vanadate on altering immunosuppressed NK function) because these are in vitro maintained rat leukemic NK cells which have spontaneously lost cytotoxicity against YAC-1 target cells. […] It is possible that the discovery of this activity of protein phosphatase inhibitors may have widespread importance for studies of mechanisms of signaling in all vertebrates. Additionally, these inhibitors may have clinical importance in circumstances of immunosuppression, immunodeficiency and other conditions of altered immune activity.
# [4] = system: human prostate gland phosphotyrosyl protein phosphatase; conditions: cited from earlier work
smiles,measurement,setting,value
"[Cl-].[Li+] [Lithium chloride, lithium chloride]",toxicity to labeled IM-9 targets,IM-9 target cells,not toxic
same,phosphotidylinositol phosphate phosphatase activity,[1],specifically inhibited
same,"effect on cytotoxicity, stressed fish",[2],no effects on cytotoxicity
"[F-].[Na+] [Sodium fluoride, sodium fluoride]","cytotoxicity in presence of inhibitor, normal NCC",[3],significant increased cytotoxicity
same,effect on NCC cytotoxicity,[3],activated the cytotoxicity of NCC
same,Percentage of control (NCC cytotoxic activity),"[3]; 5 mM, E:T 25:1",210.3%
same,Percentage of control (NCC cytotoxic activity),"[3]; 5 mM, E:T 50:1",136.9%
same,Percentage of control (NCC cytotoxic activity),"[3]; 5 mM, E:T 100:1",123.2%
same,Percent Specific Release,"[3]; 5 mM, E:T 10, media 39",48%
same,Percent Specific Release,"[3]; 5 mM, E:T 25, media 4",9%
same,Percent Specific Release,"[3]; 5 mM, E:T 50, media 21",29%
same,Percentage of control (NCC cytotoxic activity),"[3]; 10 mM, E:T 25:1",333.3%
same,Percentage of control (NCC cytotoxic activity),"[3]; 10 mM, E:T 50:1",183.9%
same,Percentage of control (NCC cytotoxic activity),"[3]; 10 mM, E:T 100:1",153.7%
same,Percent Specific Release,"[3]; 10 mM, E:T 10, media 39",60%
same,Percent Specific Release,"[3]; 10 mM, E:T 25, media 4",14%
same,Percent Specific Release,"[3]; 10 mM, E:T 50, media 21",39%
same,Percentage of control (NCC cytotoxic activity),"[3]; 20 mM, E:T 25:1",635.3%
same,Percentage of control (NCC cytotoxic activity),"[3]; 20 mM, E:T 100:1",157.3%
same,Percent Specific Release,"[3]; 20 mM, E:T 10, media 39",61%
same,Percent Specific Release,"[3]; 20 mM, E:T 25, media 4",28%
same,Percent Specific Release,"[3]; 20 mM, E:T 50, media 21",49%
same,effect of removal of inhibitor on NCC activation (words),[3]; listed as NaF,almost completely obliterated activation
same,effect of removal of inhibitor on NCC activation (words),[3]; listed as fluoride,almost completely obliterated NCC activation
same,effect of removal of inhibitor on NCC activation (words),[3]; listed as sodium fluoride,lost
same,calcineurin-mediated dephosphorylation,calcineurin,"fluoride, but not vanadate inhibited"
same,toxicity to labeled IM-9 targets,IM-9 target cells; 20 mM,not toxic
same,protein phosphatase activity,protein phosphatase,vanadate but not fluoride inhibited protein phosphatase activity
same,toxicity to NCC,NCC,not toxic to NCC
same,increase in the lytic activity of CRC cells,CRC cells,3 -fold
same,human prostate gland phosphotyrosyl protein phosphatase,[4],"fluoride, but not vanadate inhibited human prostate gland phosphotyrosyl protein phosphatase"
same,Percent Specific Release (stressed fish),[2]; NaF 5 mM,1.4%
same,Percent Specific Release (stressed fish),[2]; NaF 10 mM,4.4%
same,Percent Specific Release (stressed fish),[2]; NaF 20 mM,22.0%
